Assay results taken from patent US8362066B2, “Compounds and methods for treating protein folding disorders” (Treventis Corporation, priority 2006, dated 2013).

Molecular target: T1, Aβ1-40 (Homo sapiens, UniProt P05067)
T1 construct: Both Aβ1-40 and Aβ1-42 were purchased from Anaspec; purchased Anaspec
Test: ThT fluorescence assay, inhibition of Aβ1-40 aggregation
Format: biochemical
Experimental: The compounds of the invention were evaluated for activity against Aβ aggregation in a kinetic thioflavin T (ThT) fluorescence assay similar to that of Chalifour, R. J., et al., J. Biol. Chem. (2003) 278: 34874-81. IC50 values for inhibition of Aβ1-40 aggregation in the ThT fluorescence assay for a number compounds of the present invention were determined. Values were calculated by solving the equation y=(m2)/(1+(x/m3)^m4) where y is percent aggregation, x is compound concentration, and m3 is the concentration giving 50% aggregation (i.e. IC50), using KaleidaGraph 4.0 (Synergy Software). Dye-binding ThT/ThS protein aggregation assays for Aβ, tau and α-synuclein were performed as described in Example 8 of US2007/0015813.

T1 sequence (P05067 672-711 limits assumed): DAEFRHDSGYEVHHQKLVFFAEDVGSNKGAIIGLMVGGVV

Row | IC50 [µM] | Structure (SMILES)
1 | 9.4 | N#Cc1ccc2[nH]cc(-c3c(O)c(O)cc4ccccc34)c2c1 [QR-0321]
2 | > 200 | Oc1ccc2[nH]cc(CN3CCc4ccccc4C3)c2c1 [QR-0269]
3 | 35.5 | COc1ccc2cc(-c3c[nH]c4ccc(C(=O)O)cc34)ccc2c1 [QR-0216]
4 | 27.8 | Oc1cc2ccccc2c(-c2ccc3c(c2)OCCO3)c1O [QR-0231, 1-(2,3-Dihydrobenzo[b][1,4]dioxin-7-yl)-2,3-dihydroxynaphthalene]
5 | 12 | N#Cc1ccc2[nH]cc(-c3c[nH]c4ccc(Br)cc34)c2c1 [QR-0240]
6 | > 50 | COc1ccccc1Nc1cccc(Nc2ccccc2OC)c1 [QR-0316]
7 | 10.3 | O=C(O)c1cccc2c(-c3cc4ccccc4s3)c[nH]c12 [QR-0261]
8 | 5.8 | COc1ccc2[nH]cc(-c3c[nH]c4ccc([N+](=O)[O-])cc34)c2c1 [QR-0171]
9 | > 50 | O=C(O)c1cccc2c(-c3cc4ccccc4o3)cn(Cc3ccccc3)c12 [QR-0284, 3-Benzofuran-2-yl-1-benzyl-1H-indole-7-carboxylic acid]
10 | 0.54 | COc1ccc(Nc2ccc(Nc3ccc(OC)cc3)cc2)cc1 [QR-0292]
11 | 1.03 | Oc1ccc(Nc2cccc(Nc3ccc(O)cc3)c2)cc1 [QR-0325]
12 | 18.9 | Oc1ccc2cc(-c3ccc4c(c3)OCCO4)ccc2c1 [QR-0229, 6-(2,3-Dihydrobenzo[b][1,4]dioxin-7-yl)naphthalene-2-ol]
13 | 3.3 | Oc1cccc(Nc2cccc(Nc3cccc(O)c3)c2)c1 [QR-0326]
14 | 3.2 | Nc1ccc2[nH]cc(-c3c4ccccc4cc4c3[nH]c3ccc(N)cc34)c2c1 [QR-0302]
15 | 5.7 | COc1cccc(Nc2cccc(Nc3cccc(OC)c3)c2)c1 [QR-0315]
16 | 6.5 | N#Cc1ccc2[nH]cc(-c3ccc4cc(O)ccc4c3)c2c1 [QR-0313]
17 | 0.57 | Oc1ccc2cc(-c3cc4ccccc4o3)ccc2c1Br [QR-0297, 6-(Benzofuran-2-yl)-1-bromonaphthalen-2-ol]
18 | 2.4 | Oc1ccc(Nc2cccc(Nc3ccc(O)cc3)c2)cc1 [QR-0319]
19 | 11.8 | O=C(O)c1ccc2c(-c3c[nH]c4ccc(O)cc34)c[nH]c2c1 [QR-0253]
20 | 19.5 | O=C(O)c1cccc2c(-c3cc4ccccc4s3)cn(Cc3ccccc3)c12 [QR-0287, 3-(Benzo[b]thiophen-2-yl)-1-benzyl-1H-indole-7-carboxylic acid]
21 | 10 | O=C(O)c1cccc2c(-c3ccc4cc(O)ccc4c3)c[nH]c12 [QR-0258, 3-(2-Hydroxynaphthalen-6-yl)-1H-indole-7-carboxylic acid]
22 | 1.7 | Nc1ccc2[nH]cc(-c3c[nH]c4ccc(Br)cc34)c2c1 [QR-0300]
23 | 17.1 | O=C(O)c1cccc2c(-c3cc4ccccc4o3)c[nH]c12 [QR-0256]
24 | 20.9 | COc1ccc2[nH]cc(-c3c[nH]c4ccc(C#N)cc34)c2c1 [QR-0238]
25 | 7 | Oc1ccc2cc(-c3c[nH]c4ccc(O)cc34)ccc2c1 [QR-0225, 5-Hydroxy-3-(2-hydroxynaphthalen-6-yl)-1H-indole]
26 | 21 | O=C(O)c1cccc2c(-c3c[nH]c4ccc(Br)cc34)c[nH]c12 [QR-0303]
27 | 11.5 | O=C(O)c1ccc2c(-c3c[nH]c4ccc([N+](=O)[O-])cc34)c[nH]c2c1 [QR-0327]
